The values that follow come from patent US11485741B2, “Macrocyclic toll-like receptor 7 (TLR7) agonists” (BRISTOL-MYERS SQUIBB COMPANY, priority 2018, dated 2022).

One test has as its target T1, human TLR7 (Homo sapiens, UniProt Q9NYK1).
T1 construct: host or cells: HEK-Blue TLR7 cells (engineered human embryonic kidney cells)
T1 sequence (Q9NYK1 27-1049): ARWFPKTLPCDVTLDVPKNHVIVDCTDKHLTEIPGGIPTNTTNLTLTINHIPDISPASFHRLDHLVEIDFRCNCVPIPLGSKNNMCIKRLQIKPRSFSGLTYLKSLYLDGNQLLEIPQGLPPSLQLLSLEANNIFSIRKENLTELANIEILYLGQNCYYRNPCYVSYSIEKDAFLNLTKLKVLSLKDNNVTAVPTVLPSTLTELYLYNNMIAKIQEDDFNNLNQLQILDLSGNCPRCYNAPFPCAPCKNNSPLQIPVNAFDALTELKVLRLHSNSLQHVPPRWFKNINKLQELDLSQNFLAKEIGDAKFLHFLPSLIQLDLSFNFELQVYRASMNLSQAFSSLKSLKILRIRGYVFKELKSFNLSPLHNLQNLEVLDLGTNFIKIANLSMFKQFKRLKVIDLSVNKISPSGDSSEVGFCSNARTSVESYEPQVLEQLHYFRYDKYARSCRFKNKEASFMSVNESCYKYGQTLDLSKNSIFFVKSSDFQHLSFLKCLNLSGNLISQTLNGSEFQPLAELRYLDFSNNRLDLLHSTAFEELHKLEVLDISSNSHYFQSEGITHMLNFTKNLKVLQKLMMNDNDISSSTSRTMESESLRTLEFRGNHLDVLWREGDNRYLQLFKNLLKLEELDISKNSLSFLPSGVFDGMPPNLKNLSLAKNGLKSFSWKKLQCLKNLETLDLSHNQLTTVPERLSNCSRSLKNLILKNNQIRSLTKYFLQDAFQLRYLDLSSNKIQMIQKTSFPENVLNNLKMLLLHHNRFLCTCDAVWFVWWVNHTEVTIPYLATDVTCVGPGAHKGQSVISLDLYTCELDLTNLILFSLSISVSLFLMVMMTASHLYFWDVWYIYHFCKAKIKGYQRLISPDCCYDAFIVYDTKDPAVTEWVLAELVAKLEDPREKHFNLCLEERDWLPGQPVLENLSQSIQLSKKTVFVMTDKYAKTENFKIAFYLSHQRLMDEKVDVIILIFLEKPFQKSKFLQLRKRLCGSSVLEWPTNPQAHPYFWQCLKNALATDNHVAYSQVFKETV
Briefly: HEK-Blue TLR7 reporter assay (SEAP reporter). It is filed as cell-based. The conditions noted are these: HEK-Blue TLR7 cells, 18 h treatment, SEAP readout; average if more than one assay; read-out: TLR7 Agonism HEK Blue ™ Assay EC50. From the text: Table A presents biological activity data for compounds disclosed herein. One set of data relates TLR7 agonism activity using the HEK-Blue™ TLR7 reporter assay, as described in Example 11 hereinbelow. Another set of data relates to the induction of interleukin 6 (IL-6), a cytokine that plays an important role in the TLR7 pathway. […] In some instances, more that one TLR7 agonism or IL-6 induction assay was made; if so, the reported value is an average.
This example describes a method for assaying TLR7 agonist activity of the compounds disclosed in this specification.
HEK-Blue™ TLR7 cells were added to each well of a 384-well tissue-culture plate (15,000 cells per well) and incubated 16-18 h at 37° C., 5% CO2. Compounds (100 nl) were dispensed into wells containing the HEK-Blue™ TLR cells and the treated cells were incubated at 37° C., 5% CO2. After 18 h treatment ten microliters of freshly-prepared Quanti-Blue™ reagent (Invivogen) was added to each well, incubated for 30 min (37° C., 5% CO2) and SEAP levels measured using an Envision plate reader (OD=620 nm). […] EC50's can be determined with software such as Graphpad Prism™.

In the next test the test system is interleukin 6 (IL-6). In words: Interleukin 6 induction assay in human whole blood (AlphaLISA). The class given is cell-based. The conditions noted are these: Homo sapiens, 20 h, 20 h at 37° C., 100% set by resiquimod reference at 10 μM, average if more than one assay, read-out: IL-6 Induction EC50 (nM) (normalized 10 μM). From the text:
Table A presents biological activity data for compounds disclosed herein. One set of data relates TLR7 agonism activity using the HEK-Blue™ TLR7 reporter assay, as described in Example 11 hereinbelow. Another set of data relates to the induction of interleukin 6 (IL-6), a cytokine that plays an important role in the TLR7 pathway. […] In some instances, more that one TLR7 agonism or IL-6 induction assay was made; if so, the reported value is an average. This example describes a method for assaying interleukin 6 (IL 6) induction by compounds disclosed in this specification. Compounds suspended in DMSO were transferred to individual wells of a Matrix Technologies clear, V-bottom 384-well plate using ECHO acoustic liquid handling technology (25 nL per well). Human whole-blood samples (25 uL) were added to each well using a CyBio FeliX liquid handling instrument and the plate was shaken on a plate shaker for three minutes before incubating the reaction mixtures at 37° C. for 20 h. Basel RPMI 1640 medium (supplemented with L-glutamine) was then added to each well (25 uL per well) prior to liberating plasma from each sample by centrifugation (450×g, 5 min, ambient temperature). Treated plasma samples (3 uL) were subsequently transferred to individual wells of a white, shallow, 384-well ProxiPlate (PerkinElmer) using the FeliX liquid handling instrument and their IL6 levels were measured using AlphaLISA technology as described by the manufacturer (PerkinElmer).

Structures are written as SMILES.

For `Nc1nc2nc3c1nc(O)n3Cc1ccc(-c3cnn(CC(=O)NC4CNC4)c3)c(c1)C/C=C/CCO2` [IIb-38], the EC50 at human TLR7 is 22 nM; in the test with interleukin 6 (IL-6) it was 1000 nM.
For `COC(=O)CNCc1ccc(Oc2ccc3cc2C/C=C/CCOc2nc(N)c4nc(O)n(c4n2)C3)cc1` [IIa-10] the same measures were 4.3 nM and 50 nM.
Taken in the same sequence, the figures for `Nc1nc2nc3c1nc(O)n3Cc1ccc(-c3ccc(CNC4CCC4)cc3)c(c1)C/C=C/CCO2` [IIb-10] were 1.1 nM and 0.41 nM.
As for `Nc1nc2nc3c1nc(O)n3Cc1ccc(-c3ccc(CNC4CCC4)cc3)c(c1)OCCCO2` [IIb-20], the EC50 was 56 nM at human TLR7 and 150 nM with interleukin 6 (IL-6).
Taken in the same sequence, the figures for `Nc1nc2nc3c1nc(O)n3Cc1ccc(-c3ccc(CNC4CC(O)C4)cc3)c(c1)C/C=C/CCO2` (stereo not drawn) [IIb-23] were 0.81 nM and 2 nM.
Taken in the same sequence, the figures for `Nc1nc2nc3c1nc(O)n3Cc1ccc(-c3cnn(CCNC4CC4)c3)c(c1)C/C=C/CCO2` [IIb-01] were 0.67 nM and 42 nM.
For `Nc1nc2nc3c1nc(O)n3Cc1ccc(Oc3cccc(CNC4CC4)c3)c(c1)CCCCCO2` [IIa-12] the same measures were 29 nM and 110 nM.
With `Nc1nc2nc3c1nc(O)n3Cc1ccc(-c3ccc(CNC4CCC4)cc3)c(c1)OCCCCO2` [IIb-19], the EC50 turned out to be 1 nM on human TLR7 and 1.4 nM in the test on interleukin 6 (IL-6).
Taken in the same sequence, the figures for `Nc1nc2nc3c1nc(O)n3Cc1ccc(OCC(=O)NC3CNC3)c(c1)C/C=C\CCO2` [IIe-01] were 5.3 nM and 40 nM.
`Nc1nc2nc3c1nc(O)n3Cc1ccc(Oc3cccc(CNC4CC4)c3)c(c1)C/C=C/CCO2` [IIa-03]: the half-maximal effective concentration (EC50) came to 5.3 nM on human TLR7 and 47 nM in the test on interleukin 6 (IL-6).
Taken in the same sequence, the figures for `Nc1nc2nc3c1nc(O)n3Cc1cc(cc(Oc3ccc(CNC4CC4)cc3)c1)C/C=C/CCO2` [IIa-18] were 10 nM and 32 nM.
For `Nc1nc2nc3c1nc(O)n3Cc1ccc(-c3cc(CNC4CCC4)[nH]n3)c(c1)C/C=C\CCO2` [IIb-15] the same measures were 0.65 nM and 4.7 nM.
For the compound `Nc1nc2nc3c1nc(O)n3Cc1ccc(Oc3ccc(CNC4CC4)cc3)c(c1)C/C=C/CCO2` [IIa-02], the values for the EC50 on human TLR7 and in the test with interleukin 6 (IL-6) were 4 nM and 5.2 nM, respectively.
Taken in the same sequence, the figures for `Nc1nc2nc3c1nc(O)n3Cc1cc(cc(OC3CCNCC3)c1)C/C=C/CCO2` [IIc-02] were 23 nM and 200 nM.
For `Nc1nc2nc3c1nc(O)n3Cc1ccc(-c3cnn(CCNC4CCC4)c3)c(c1)CCCCCO2` [IIb-08] the same measures were 1.7 nM and 6.2 nM.
For `Nc1nc2nc3c1nc(O)n3Cc1ccc(-c3cccc(C(=O)NC4CNC4)c3)c(c1)C/C=C\CCO2` [IIb-29] the same measures were 3.2 nM and 24 nM.
For the compound `Nc1nc2nc3c1nc(O)n3Cc1ccc(OCC(=O)NC3CNC3)c(c1)C/C=C/CCO2` [IIe-02], the values for the EC50 at human TLR7 and in the test with interleukin 6 (IL-6) were 70 nM and 1100 nM, respectively.
Taken in the same sequence, the figures for `Nc1nc2nc3c1nc(O)n3Cc1ccc(Oc3cccc(CNC4CCC4)c3)c(c1)C/C=C\CCO2` [IIa-07] were 4.2 nM and 2.9 nM.
Taken in the same sequence, the figures for `Nc1nc2nc3c1nc(O)n3Cc1ccc(-c3ccc(C(=O)NC4CNC4)cc3)c(c1)C/C=C\CCO2` [IIb-30] were 1.6 nM and 36 nM.
For `Nc1nc2nc3c1nc(O)n3Cc1ccc(-c3ccc(CNC4CC(O)C4)cc3)c(c1)C/C=C\CCO2` (stereo not drawn) [IIb-22] the same measures were 0.42 nM and 1.4 nM.
`Nc1nc2nc3c1nc(O)n3Cc1ccc(-c3cnn(CCN4CCOCC4)c3)c(c1)C/C=C/CCO2` [IIb-37]: the EC50 at human TLR7 is 3.8 nM; in the test on interleukin 6 (IL-6), 180 nM.
For `Nc1nc2nc3c1nc(O)n3Cc1ccc(-c3ccc(CNC4CCC4)cc3)c(c1)CCCCCCO2` [IIb-18], the EC50 at human TLR7 is 3.8 nM; with interleukin 6 (IL-6), 34 nM.
As to `Nc1nc2nc3c1nc(O)n3Cc1cc(cc(Oc3cccc(CNC4CCC4)c3)c1)C/C=C/CCO2` [IIa-14], the EC50 on human TLR7 amounted to 19 nM; with interleukin 6 (IL-6), 140 nM.
Taken in the same sequence, the figures for `Nc1nc2nc3c1nc(O)n3Cc1ccc(-c3cnn(CCNC4CC4)c3)c(c1)C/C=C\CCO2` [IIb-02] were 0.35 nM and 1.3 nM.
For `Nc1nc2nc3c1nc(O)n3Cc1ccc(-c3ccc(CNC4CCC4)cc3)c(c1)C/C=C/CCCO2` [IIb-16] the same measures were 1.2 nM and 3.6 nM.
Taken in the same sequence, the figures for `Nc1nc2nc3c1nc(O)n3Cc1cc(cc(Oc3ccc(CNC4CCC4)cc3)c1)CCCCCO2` [IIa-16] were 42 nM and 250 nM.
As for `CC1(NCc2ccc(-c3ccc4cc3C/C=C/CCOc3nc(N)c5nc(O)n(c5n3)C4)cc2)CCC1` [IIb-26], the EC50 on human TLR7 came to 0.26 nM; with interleukin 6 (IL-6) it was 1 nM.
Taken in the same sequence, the figures for `Nc1nc2nc3c1nc(O)n3Cc1cc(cc(Oc3ccc(CNC4CCC4)cc3)c1)C/C=C/CCO2` [IIa-17] were 8.5 nM and 44 nM.
As to `Nc1nc2nc3c1nc(O)n3Cc1ccc(-c3ccc(CNC4CCC4)cc3)c(c1)C/C=C\CCO2` [IIb-11], the EC50 on human TLR7 came to 0.33 nM; in the test on interleukin 6 (IL-6), 0.68 nM.
For the compound `Nc1nc2nc3c1nc(O)n3Cc1ccc(Oc3ccc(C(=O)NC4CNC4)cc3)c(c1)C/C=C\CCO2` [IIa-19], the figures for the EC50 at human TLR7 and with interleukin 6 (IL-6) were 25 nM and 95 nM, respectively.
